Experimental data: patent US7507742B2, “Spirocyclic derivatives” (Pfizer Inc., priority 2005, dated 2009)

How the values were obtained:
Human Hepatocytes = assay: Human hepatic metabolic stability in cryopreserved human hepatocytes; type: in vitro ADME; conditions: intrinsic clearance (apparent); 1 μM substrate, 0.5 million viable cells/mL, 37° C., 5 donors
Protocol: (§1) The human hepatic metabolic stability of the compounds of Examples 1-7 of the present application were assessed in the model described below. The compound of Example 75 of WO 02/074754, 5′-carboxypropoxy-8′-chloro-spiro[cyclohexane-1-4′-(3′,4′-dihydro)quinazolin]-2′(1′H)-one (hereinafter “Compound A”), which is believed to represent the closest state of the art, was used as a comparison.
(§2) Hepatocytes are used as an in vitro system to monitor hepatic metabolism as these intact cells contain all the hepatic enzymes found in vivo, including phase I enzymes, such as cytochrome P450 oxidases (CYPs), aldehyde oxidases and monoamine oxidases (MAOs), and phase 11 enzymes, such as UDP-glucuronyltransferases and sulfotransferases. Cryopreserved human hepatocytes are prepared from 5 donors and suspended in Williams' E media. 4-(2-hydroxyethyl)-1-piperazineethanesulfonic acid (HEPES) is added to a final concentration of 50 mM and pH is adjusted to 7.4. Test substrates are dissolved in DMSO are added to the hepatocytes to give a substrate concentration of 1 μM, with a final DMSO concentration in the incubation below 0.1%. The experiments are performed in 96 or 384 well plates at 37° C., with a hepatocyte density of 0.5 million viable cells/mL. Sampling times of 10, 20, 30, 60, 90, and 120 minutes are used and analytical quantitation is by LC-MS/MS. The intrinsic clearance (apparent) is calculated using the formula: CLint, app=[−slope/0.5 M cells/mL]·1000 μL/mL=μL/min/M cells.
(§3) The human hepatic metabolic stability of the compounds of the present invention was tested according to the above protocol.

[1] = Estimate of human pharmacokinetics by scaling rat unbound clearance; conditions: for Clu man: estimated human clearance scaled from rat: Clu rat*(BWman/BWrat)^0.75, 70 kg man, 0.25 kg rat; for half-life: human, T1/2=[ln(2)*Vd]/Cl, Vd in man assumed 0.2 L/kg, read-out: Estimated T1/2 (human half-life) (converted)
Excerpt: (§4) Based on the above pharmacokinetic data in the rat, the likely human pharmacokinetics of the compounds of Examples 1 and 2, and that of Compound A, can be estimated as follows. • Scaling the unbound rat plasma clearance (Clu rat) observed following intravenous administration to estimate an unbound human plasma clearance (Clu man) using the following relationship: Clu man=Clu rat*(BWman/BWrat)^0.75 where BWman & BWrat are the average body weights of man (70 kg) and rat (0.25 kg) respectively, and units of clearance are in ml/min. • Converting Clu man to estimate total blood clearance in man (Clman): Clman=[(Clu man)*fup]/B:P where fup is the free fraction of unbound drug in plasma and B:P is the blood to plasma ratio in human blood. • An estimate of human half-life is presented for each compound, derived using the relationship: T1/2=[In(2)*Vd]/Cl where T1/2 is the estimated human half-life in hours, Vd is the volume of distribution in man (assumed to be 0.2 L/kg, due to the physicochemistry of this series) and Cl is the human clearance.

[2] = Fraction unbound in rat plasma; type: in vitro ADME; conditions: for fraction unbound: read-out: fup (fraction unbound in rat plasma)
[3] = Free fraction of unbound drug in plasma used for the human estimate; type: in vitro ADME; conditions: Table 7, used to convert Clu man to Clman; for fraction unbound: human, plasma, read-out: fup (free fraction of unbound drug in plasma)
Excerpt: as §4

[4] = Blood to plasma ratio in human blood; type: in vitro ADME; conditions: for blood plasma ratio: human, read-out: B:P (blood to plasma ratio)
Excerpt: as §4

Rat IV pharmacokinetics = type: in vivo
Protocol: The pharmacokinetic properties of the compounds of Examples 1 and 2 were tested in the rat model described below. The compound of Example 75 of WO 02/074754, 5′-carboxypropoxy-8′-chloro-spiro[cyclohexane-1-4′-(3′,4′-dihydro)quinazolin]-2′(1′H)-one (hereinafter “Compound A”), which is believed to represent the closest state of the art, was used as a comparison.
The test compounds were administered to male rats (each rat receiving one compound), via the tail vein, at a dose of 1 mg/kg (0.08 mg/kg for the compound of Example 1). Blood samples were withdrawn from the rats via a surgically implanted jugular vein cannula at predetermined time-points after administration, and centrifuged to produce plasma. Plasma samples were analysed via a specific LC-MS/MS assay for the quantification of drug in plasma. The resulting plasma concentration-time curves were interrogated using a non-compartmental pharmacokinetic analysis in order to understand the disposition of each compound. The resulting output was subsequently used to estimate the likely human pharmacokinetic profile, as described below.
The mean, dose normalised, pharmacokinetic profiles of the compounds of Examples 1 and 2, as well as that of Compound A, following 1 mg/kg intravenous administration are shown in Table 6 below and in FIG. 1.

[5] = Human hepatic metabolic stability in cryopreserved human hepatocytes; type: in vitro ADME; conditions: human, hepatocytes, pH 7.4
Protocol: as §1, §2, §3

PDE7A = target: T1, PDE7A (Homo sapiens, UniProt Q13946); assay: PDE7A inhibition, [3H]-cAMP scintillation proximity assay; type: biochemical; conditions: IC50 converted to Ki by Cheng-Prussof equation; cell lysate with full length enzyme, ~25 nM cAMP
T1 construct: carried out using cell lysate containing full length PDE7A and PDE7B enzyme; made in house
Protocol: (§5) The ability of the compounds of formula (I) to inhibit PDE7 may be measured using the following assay protocol.
(§6) PDE7A and PDE7B enzymes catalyse the hydrolysis of 3′,5′-cyclic adenosine monophosphate (cAMP) to the 5′adenosine monophosphate, 5′AMP. In a multiwell plate; PDE enzyme, [^3H]-cAMP and the tested compounds, are incubated at room temperature. The incubation is terminated by addition of commercially available yttrium silicate scintillation proximity assay (SPA) beads containing zinc sulphate. The yttrium silicate beads preferentially bind linear nucleotides, thus the product of the enzyme reaction, [^3H]-5′AMP binds to the bead to produce a light signal, which is detected by a scintillation counter. The amount of signal produced directly correlates with the amount of product formed, and thus the activity of the enzyme. The maximum signal is obtained where enzyme and substrate are incubated alone. The background signal is measured from wells either containing no enzyme, or from wells containing a supra-maximal concentration of a known PDE7A/B inhibitor. Each purified batch of enzyme is quality controlled and its Km, Vmax and specific activity determined from kinetic studies before use in compound inhibition studies. The inhibition of the enzyme, by a test compound, is calculated relative to the maximum and background responses.
(§7) The optimisation of this assay has been carried out using cell lysate containing full length PDE7A and PDE7B enzyme. The concentration of the enzyme in this cell lysate sample is unknown, so the specific activity of the cell lysate is used as a measure to ensure that the same activity per well is used despite any batch-to-batch variation of concentration/activity.
(§8) PDE7 stock enzyme was prepared and kept at −20° C. in appropriately sized aliquots to reduce the number of freeze/thaw cycles. […] PDE7A is diluted to 1/8000 and PDE7B to 1/10000.
(§9) The final assay [cAMP] of ˜25 nM is required, so ˜50 nM [^3H]-cAMP was prepared.
(§10) Compound dilutions and “background” wells were made 30 stronger than required in the assay plate to allow for 1 μl compound to be diluted by 29 μl of other assay components (14 μl enzyme and 15 μl radioligand). Thus for a final assay concentration of 10 μM, the compound must be at 300 μM in the compound addition plate. 4 mM stocks of compound are supplied in 100% DMSO (or are made up @ 4 mM from powder submissions). This requires 1/13.33 dilution in DMSO to be made.
(§11) 1 μl test compound was transferred into a suitable multi-well assay plate immediately prior to reagent assay addition, 14 μl enzyme solution was then added to the assay plate, followed by 15 μl substrate solution (ie: final assay volume 30 μl, with a final screening compound concentration of […]). The plate was then sealed using a plate sealer and incubated at room temperature for 45 min on the plate shaker.
(§12) 30 μl Yttrium Silicate PDE4 SPA beads were then added, ensuring constant stirring of the beads to give even distribution in the assay plate. The plate was then sealed using a plate sealer and incubated at room temperature for 30 mins on the plate shaker. The beads were then allowed to settle for 30 mins, before spinning the plates for 1 min at 200 g.
(§13) The plates were then read on a suitable radioactive counter, for example NXT-TopCount™ (available from Perkin Elmer) using the relevant protocol (30 second read time per well).
(§14) The data was fitted to a sigmoid curve using a least squares algorithm.
(§15) The IC50 value was converted to a K^i value using the Cheng-Prussof equation: […]

PDE7B = target: T2, PDE7B (Homo sapiens, UniProt Q9NP56); assay: PDE7B inhibition, [3H]-cAMP scintillation proximity assay; type: biochemical; conditions: IC50 converted to Ki by Cheng-Prussof equation; cell lysate with full length enzyme, ~25 nM cAMP
T2 construct: carried out using cell lysate containing full length PDE7A and PDE7B enzyme; made in house
Protocol: as §5, §6, §7, §8, §9, §10, §11, §12, §13, §14, §15

[6] = male rats, intravenous 1 mg/kg (0.08 mg/kg for Example 1)

T2 sequence (Q9NP56 whole entry, species assumed): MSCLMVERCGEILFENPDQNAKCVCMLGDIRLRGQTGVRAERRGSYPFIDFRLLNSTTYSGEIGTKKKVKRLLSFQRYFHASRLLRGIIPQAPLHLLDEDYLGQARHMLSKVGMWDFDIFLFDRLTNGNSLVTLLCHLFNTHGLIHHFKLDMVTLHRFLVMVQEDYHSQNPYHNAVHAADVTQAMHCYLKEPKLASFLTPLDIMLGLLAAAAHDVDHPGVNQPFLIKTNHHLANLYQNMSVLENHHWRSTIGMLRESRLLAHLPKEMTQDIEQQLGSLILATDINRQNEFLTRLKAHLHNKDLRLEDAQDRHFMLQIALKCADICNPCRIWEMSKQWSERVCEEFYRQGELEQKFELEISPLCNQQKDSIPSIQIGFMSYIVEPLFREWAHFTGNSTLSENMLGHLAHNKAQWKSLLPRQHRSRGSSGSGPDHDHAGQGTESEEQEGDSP
T1 sequence (Q13946 whole entry, species assumed): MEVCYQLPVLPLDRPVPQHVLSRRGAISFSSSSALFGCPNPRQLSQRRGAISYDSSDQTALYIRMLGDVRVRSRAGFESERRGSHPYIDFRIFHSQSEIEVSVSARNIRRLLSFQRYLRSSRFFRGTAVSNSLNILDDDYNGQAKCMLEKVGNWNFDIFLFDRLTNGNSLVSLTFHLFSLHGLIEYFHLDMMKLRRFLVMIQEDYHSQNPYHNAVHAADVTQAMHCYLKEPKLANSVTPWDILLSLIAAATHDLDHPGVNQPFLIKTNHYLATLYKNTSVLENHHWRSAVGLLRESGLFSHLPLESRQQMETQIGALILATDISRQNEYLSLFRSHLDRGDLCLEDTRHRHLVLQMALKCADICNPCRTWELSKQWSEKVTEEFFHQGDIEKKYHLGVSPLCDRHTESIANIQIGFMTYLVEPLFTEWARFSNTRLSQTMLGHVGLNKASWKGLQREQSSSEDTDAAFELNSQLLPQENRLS

Compound: O=C(O)CCCOc1ccc(Cl)c2c1C1(CCCCC1)NC(=O)N2 [Compound A, 5′-carboxypropoxy-8′-chloro-spiro[cyclohexane-1-4′-(3′,4′-dihydro)quinazolin]-2′(1′H)-one, reference compound]
- Human Hepatocytes CLint (Human Hepatocytes): 25 μL/min/M cells
- Clu man [1]: 1.9 mL/min/kg
- fup (fraction unbound in rat plasma) [2]: 0.045
- fup (free fraction of unbound drug in plasma) [3]: 0.03
- B:P (blood to plasma ratio) [4]: 0.6
- Clu (unbound rat plasma clearance) (Rat IV pharmacokinetics; Clu = Cl/fup, male rats, intravenous): 156 mL/min/kg
- T1/2 (half life) (Rat IV pharmacokinetics; [6]): <1 h
- Vd (volume of distribution in rat) (Rat IV pharmacokinetics; [6]): 0.4 L/kg
- Cl (rat clearance) (Rat IV pharmacokinetics; male rats, intravenous 1 mg/kg (0.08 mg/kg for Example 1), mean, dose normalised): 7 mL/min/kg
- Clu rat (Rat IV pharmacokinetics; unbound rat plasma clearance after intravenous administration, as repeated in Table 7): 156 mL/min/kg

Compound: O=C1Nc2c(Cl)ccc(O[C@H]3C[C@@H](C(=O)O)C3)c2C2(CCCCC2)N1 [Example 1, Cis-3-[(8′-chloro-2′-oxo-2′,3′-dihydro-1′H-spiro[cyclohexane-1,4′-quinazolin]-5′-yl)oxy]cyclobutanecarboxylic acid]
- hepatocyte CLint at 1 μM [5]: < 5 µL/min/1e6 cells
- Ki (PDE7A): 1.9 nM
- Clu man [1]: 0.8 mL/min/kg
- half-life [1]: 3 h
- fraction unbound [2]: 0.07
- Ki (PDE7B): 4.6 nM
- fraction unbound [3]: 0.07
- blood plasma ratio [4]: 0.6
- Clu (unbound rat plasma clearance) (Rat IV pharmacokinetics; male, rat, in vivo, iv): 27 mL/min/kg
- Clu rat (Rat IV pharmacokinetics; male, rat, in vivo, iv): 27 mL/min/kg
- clearance (Rat IV pharmacokinetics; male, rat, in vivo, iv): 1.9 mL/min/kg
- half-life (Rat IV pharmacokinetics; male, rat, in vivo, iv): 4 h
- Vd (volume of distribution in rat) (Rat IV pharmacokinetics; rat, in vivo, iv): 0.6 L/kg

Compound: O=C1Nc2c(Cl)ccc(O[C@H]3C[C@H](C(=O)O)C3)c2C2(CCCCC2)N1 [Example 2]
- hepatocyte CLint at 1 μM [5]: < 5 µL/min/1e6 cells
- Ki (PDE7A): 3.1 nM
- Clu man [1]: 0.2 mL/min/kg
- half-life [1]: 10 h
- fraction unbound [2]: 0.1
- Ki (PDE7B): 13.4 nM
- fraction unbound [3]: 0.01
- blood plasma ratio [4]: 0.7
- Clu (unbound rat plasma clearance) (Rat IV pharmacokinetics; male, rat, in vivo, iv): 70 mL/min/kg
- Clu rat (Rat IV pharmacokinetics; male, rat, in vivo, iv): 70 mL/min/kg
- clearance (Rat IV pharmacokinetics; male, rat, in vivo, iv): 0.7 mL/min/kg
- half-life (Rat IV pharmacokinetics; male, rat, in vivo, iv): 11 h
- Vd (volume of distribution in rat) (Rat IV pharmacokinetics; rat, in vivo, iv): 0.7 L/kg

Compound: O=C1Nc2c(F)ccc(OCC3CC(C(=O)O)C3)c2C2(CCCCC2)N1 (centres unmarked) [Example 3, 3-[(8′-fluoro-2′-oxo-2′,3′-dihydro-1′H-spiro[cyclohexane-1,4′-quinazolin]-5′-yl)oxymethyl]cyclobutanecarboxylic acid]
- hepatocyte CLint at 1 μM [5]: < 5 µL/min/1e6 cells
- Ki (PDE7A): 15.6 nM
- Ki (PDE7B): 108 nM

Compound: N#Cc1ccc(O[C@H]2C[C@H](C(=O)O)C2)c2c1NC(=O)NC21CCCCC1 [Example 4, trans-3-[(8′-cyano-2′-oxo-2′,3′-dihydro-1′H-spiro[cyclohexane-1,4′-quinazolin]-5′-yl)oxy]cyclobutanecarboxylic acid]
- hepatocyte CLint at 1 μM [5]: < 5 µL/min/1e6 cells
- Ki (PDE7A): 11.6 nM
- Ki (PDE7B): 144 nM

Compound: O=C1Nc2c(F)ccc(OCC3(C(=O)O)CCC3)c2C2(CCCCC2)N1 [Example 5, 1-[(8′-fluoro-2′-oxo-2′,3′-dihydro-1′H-spiro[cyclohexane-1,4′-quinazolin]-5′-yl)oxymethyl]cyclobutanecarboxylic acid]
- hepatocyte CLint at 1 μM [5]: < 5 µL/min/1e6 cells
- Ki (PDE7A): 276 nM
- Ki (PDE7B): 1420 nM

Compound: O=C1Nc2c(Cl)ccc(O[C@H]3C[C@H](C(=O)O)C3)c2C2(CCCCCC2)N1 [Example 6, Trans-3-[(8′-chloro-2′-oxo-2′,3′-dihydro-1′H-spiro[cycloheptyl-1,4′-quinazolin]-5′-yl)oxy]cyclobutanecarboxylic acid]
- hepatocyte CLint at 1 μM [5]: < 5 µL/min/1e6 cells
- Ki (PDE7B): 17.6 nM

Compound: O=C1Nc2c(Cl)ccc(O[C@H]3C[C@H](C(=O)O)C3)c2C2(CCCC2)N1 [Example 7, Trans-3-[(8′-chloro-2′-oxo-2′,3′-dihydro-1′H-spiro[cyclopentyl-1,4′-quinazolin]-5′-yl)oxy]cyclobutanecarboxylic acid]
- hepatocyte CLint at 1 μM [5]: < 5 µL/min/1e6 cells
- Ki (PDE7A): 19.8 nM
- Ki (PDE7B): 140 nM
